Test results as given in paper doi:10.1101/2020.06.19.161828v1 (biorxiv, 2020).
pIC50: −log10 of the molar value.

Molecular target: T1, LmME (Leishmania major, UniProt Q4QAQ6)
T1 sequence (Q4QAQ6 1-573): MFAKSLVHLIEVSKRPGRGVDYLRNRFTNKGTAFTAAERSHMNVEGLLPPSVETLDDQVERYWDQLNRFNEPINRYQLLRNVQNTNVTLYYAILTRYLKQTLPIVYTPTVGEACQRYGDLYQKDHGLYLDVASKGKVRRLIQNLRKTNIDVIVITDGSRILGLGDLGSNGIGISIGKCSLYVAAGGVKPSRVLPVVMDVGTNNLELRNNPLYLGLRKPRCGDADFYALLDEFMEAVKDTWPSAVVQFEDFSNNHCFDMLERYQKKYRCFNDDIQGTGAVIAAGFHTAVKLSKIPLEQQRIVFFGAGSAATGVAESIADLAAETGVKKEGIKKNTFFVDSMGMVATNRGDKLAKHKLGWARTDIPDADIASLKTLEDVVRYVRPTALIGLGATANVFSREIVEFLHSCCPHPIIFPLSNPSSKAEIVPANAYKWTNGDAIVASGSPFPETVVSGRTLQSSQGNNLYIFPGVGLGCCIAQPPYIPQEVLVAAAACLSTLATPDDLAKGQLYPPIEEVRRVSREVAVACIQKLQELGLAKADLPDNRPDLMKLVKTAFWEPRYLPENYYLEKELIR
Experiment: spectrophotometric NADPH assay at […] nm, malate decarboxylation
Format: biochemical

c1ccc(-c2nnc3sc(Cc4ccc5c(c4)CCCC5)nn23)nc1 [ATR7-010]
pIC50: 5.80
